Laboratory results as given in PMC10987543 (Cell Death Discovery, 2024).
“Also recorded” adds a separate entry of the source. Ends that are not written are not given here.

How the values were obtained:
4T1 cells [1] = test: LDH release assay (CyQUANT); assay type: cell-based, murine; conditions: 6 h, indicated concentrations, normalized to lysis buffer
Protocol: Ten thousand cells were seeded in a 96-well plate and incubated overnight. The cells were washed once, and the medium was replaced with serum-free media. Cells were treated with CKS1 for the indicated time and concentration. CyQUANT LDH cytotoxicity assay (Thermo Fisher Scientific) was used following the manufacturer’s instructions to measure the release of LDH. LDH release was normalized to the amount of LDH released from cells treated with lysis buffer.

HUVECs = test: BrdU incorporation cell proliferation assay; assay type: cell-based, human; conditions: at a concentration in which CKS1 did not induce LDH release, N = 3
Protocol: One thousands cells were seeded in wells of a 96-well plate. The cells were treated with the indicated concentration of CKS1 immediately after seeding. Forty-eight hours later, 5-bromo-2’-deoxyuridine (BrdU) was added to each well. Twenty four hours later, BrdU incorporation was quantified using the BrdU cell proliferation assay kit (Cell Signaling Technology, Danvers, MA) following the manufacturer’s instructions.

4T1 cells [2] = test: Transmission electron microscopy of treated cells; assay type: cell-based, murine; conditions: 100 µM
Protocol: Samples were fixed in 2.5% glutaraldehyde, 3 mM MgCl2 in 0.1 M sodium cacodylate buffer, pH 7.2 overnight at 4 °C. After buffer rinse, samples were postfixed in 2% osmium tetroxide in 0.1 M sodium cacodylate for at least 1 h (no more than two) on ice in the dark. After osmium, samples were rinsed in 0.1 M Maleate buffer (pH 6.2), followed by uranyl acetate in 0.1 M Maleate (0.22 µm filtered, 1 h, dark), dehydrated in a graded series of ethanol and embedded in Epon (PolySci) resin. Samples were polymerized at 60 °C overnight. Thin sections, 60–90 nm, were cut with a diamond knife on a Leica UCT ultramicrotome and picked up with 2 × 1 mm Formvar copper slot grids. Grids were stained with 2% uranyl acetate (aq.) followed by lead citrate and observed with a Hitachi 7600 TEM at 80 kV. Images were captured with an AMT CCD XR80 (8-megapixel camera—side mount AMT XR80—high-resolution high-speed camera).

caspase-3 or caspase-7 = test: CellEvent Caspase-3/7 live cell imaging; assay type: cell-based, murine; conditions: 4T1 cells, 100 µM
Protocol: Fluorescence labeling of cells was performed by seeding 5.0 × 10^4 4T1 cells in a 35 mm dish on a collagen-coated No. 1.5 coverslip with a 14 mm glass diameter (MatTek, Ashland, MA). After overnight incubation, the cells were washed once with serum-free media and replaced with fresh serum-free media. For cell cytosol labeling, Calcein-AM (Thermo Fisher Scientific, C1430) was added at a final concentration of 5 µg/mL and incubated for 10 min. For mitochondrial membrane labeling, JC-1 (Thermo Fisher Scientific, T3168) was added at a final concentration of 10 µg/mL and incubated for 10 min. To monitor the activity of caspases, CellEvent Caspase-3/7 Red detection reagents (Thermo Fisher Scientific, C10423) were used following the manufacturer’s instructions. For nuclear staining, Hoechst 33342 (Cell Signaling Technology, #4082) was added at a final concentration of 5 µg/mL and incubated for 10 min.
Cells were imaged on either a Zeiss LSM 700 or a 3i spinning disk confocal microscope. Samples were imaged with optimized microscope settings. […]
Image processing was performed using Fiji software. […] For quantification, CellProfiler was used. After cell segmentation based on the nucleus, the intensity of the signal of interest was quantified for each cell. Based on the intensity, each cells were labeled as positive or negative and the fraction of positive cells was calculated.

4T1 cells [3] = test: Quantification of HMGB-1 release (ELISA); assay type: cell-based, murine; conditions: 100 µM, 6 h, N = 3
Protocol: (§1) Fifteen thousand cells of 4T1 cells or CT26 cells in growth media were seeded in wells of a 96-well plate. After 12 h, the media was replaced with serum-free media, and the cells were treated with the corresponding concentration of CKS1. The cells were treated with CKS1 for 6 h and the supernatant was collected from each well. After filtering the supernatant with a 0.2 µm pore filter (Corning, 431229), the amount of HMGB-1 in the supernatant was quantified using the Mouse/Rat HMGB1 ELISA kit (arigo biolaboratories, ARG81310).

CT26 cells = test: Quantification of HMGB-1 release (ELISA); assay type: cell-based, murine; conditions: 100 µM, 6 h, N = 3
Protocol: as §1

4T1 tumors = test: 4T1 triple breast cancer model, intratumoral treatment; assay type: in vivo, Balb/c mice
Protocol: The protocols used in this study were approved by the Institutional Care and Use Committee at Johns Hopkins Medical Institutions. Four- to eight-week-old female Balb/c mice were obtained from Charles River (Wilmington, MA). For the 4T1 […] model, 2.5 × 10^4 4T1 cells were injected into the first mammary fat pad of each mouse. For the CT26 colon carcinoma model, 1.0 × 10^6 CT26 cells were injected subcutaneously in the left flank. The sample size was determined so that the final distribution would be close to normal distribution. After 1 week, the animals were randomized into control and CKS1 treatment. During the randomization, the mice were kept in a cage covered with cloth so that the investigator could not see the tumor size. We started daily intratumoral treatment with 40 mg/kg CKS1. For the control group, the matching volume of water was treated intratumorally. The tumor size was measured by using a caliper, and the volume was calculated by using the formula 0.52 × (length) × (width)^2.
Tumors were fixed by immersion in 10% neutral buffered formalin (Millipore Sigma) for 48 h and subsequently dehydrated by immersion in 70%, 90%, and 100% ethanol followed by xylene for two changes of 30 min each. Tissues were embedded in paraffin blocks at 58 °C and sectioned at 4 μm using a microtome. […]

Substance: NGRKACLNPASPIVKKIIEKMLNS-NH2 [CKS1, Chemokinostatin-1]
- release of LDH (4T1 cells [1]): released significant amounts of LDH
- cell proliferation (BrdU incorporation) (HUVECs): significantly attenuated cell proliferation
- cell membrane integrity by electron microscopy (4T1 cells [2]; 30 min): ruptured after 30 min
- cell morphology by electron microscopy (4T1 cells [2]; 6 h): apoptotic morphology
- fraction of cells with activated caspases (caspase-3 or caspase-7): increased over time
- release of HMGB-1 in the culture media (4T1 cells [3]): weak
- release of HMGB-1 in the culture media (CT26 cells): significant release of HMGB-1
- tumor growth (tumor volume) (4T1 tumors; 4T1 tumors, 40 mg/kg intratumoral daily from day 7, N = 15, 40 mg/kg): inhibited; also recorded: relatively modest response
- tumor necrosis (H&E stain) (4T1 tumors; established 4T1 tumors, intratumoral injection, 24 h, representative of N = 3): Necrosis was observed
